The subject of one assay is CCRF-CEM. Description: 3H-TdR (3H-thymidine) incorporation assay at 72 hr. The assay is classed as cell-based. Conditions: 3H-TdR incorporation at 72 hr. The method, then: (§1) Table of IC50 Values (μM) for Controls
(§2) Exposition of 24 hr to drug, wash, incubated for another 48 hr (total of 72 hr assay)
(§3) (3H-Thymidine Incorporation Assay)

The subject of assay [1] is CEM/dCK-. Kind of assay: 3H-TdR (3H-thymidine) incorporation assay at 72 hr. Type of assay: cell-based. As to conditions: for pIC50: deoxycytidine kinase-deficient CCRF-CEM. The method, then:
as §1, §2, §3

For a further assay, the system named is MCF-7. Description: 3H-TdR (3H-thymidine) incorporation assay at 72 hr. Type of assay: cell-based, Human. Conditions: 3H-TdR incorporation at 72 hr.
The test system of a further assay is SF-268. Kind of assay: 3H-TdR (3H-thymidine) incorporation assay at 72 hr. Type of assay: cell-based, Human. Conditions: 3H-TdR incorporation at 72 hr.
Another assay relates to H-460. Description: 3H-TdR (3H-thymidine) incorporation assay at 72 hr. Type of assay: cell-based, Human. Conditions: 3H-TdR incorporation at 72 hr.
In assay [2] the test system is CEM/dCK-. Kind of assay: 3H-TdR incorporation at 72 hr (24 hr drug exposure, wash, 48 hr). The assay is classed as cell-based. As to conditions: read-out: IC50 in μM (3H-TdR incorporation at 72 hr) CEM/dCK- 24 h; CCRF-CEM deoxycytidine kinase-deficient; 24 h drug exposure, 72 hr assay. The method, then: as §2, §3
Where [3] appears, read: Homo sapiens, CCRF-CEM, read-out: IC50 CCRF-CEM 24 h, 24 h drug exposure, wash, another 48 hr.
Setting [4] is: read-out: IC50 CCRF-CEM 24 h, 24 h drug exposure, wash, another 48 hr.
[5] abbreviates: Homo sapiens, CCRF-CEM, read-out: IC50 CEM/dCK- 24 h, 24 h drug exposure, wash, another 48 hr.
Where [6] appears, read: Homo sapiens, MCF7, read-out: IC50 MCF-7 24 h, 24 h drug exposure, wash, another 48 hr.
Where [7] appears, read: read-out: IC50 MCF-7 24 h, 24 h drug exposure, wash, another 48 hr.
The mark [8] stands for this setting: Homo sapiens, NCI-H460, read-out: IC50 H-460 24 h, 24 h drug exposure, wash, another 48 hr.
Where [9] appears, read: read-out: IC50 H-460 24 h, 24 h drug exposure, wash, another 48 hr.
Setting [10] is: read-out: IC50 CEM/dCK- 24 h, 24 h drug exposure, wash, another 48 hr.
The mark [11] stands for this setting: Homo sapiens, SF-268, read-out: IC50 SF-268 24 h, 24 h drug exposure, wash, another 48 hr.

pIC50: −log10 of the molar value. Several values for one entry are separate records, joined by “and”; a condition that tells them apart may be missing. Equal entries are not always repeated. Where two headings read alike, the source gives them in different places. Where only a bound is given, the exact number is not on record here.

With `CCCCC(C)C(=O)Nc1ccn([C@@H]2CO[C@H](CO)O2)c(=O)n1` (stereo in doubt) [Compound 96, 2-METHYL-HEXANOIC ACID [1-(2-HYDROXYMETHYL- [1,3]DIOXOLAN-4-YL)-2- OXO-1,2-DIHYDRO- PYRIMIDIN-4-YL]-AMIDE], the pIC50 with CCRF-CEM (setting [3]) is 5.74; in the assay with CCRF-CEM (setting [4]), 5.72; with CEM/dCK- [1] (setting [5]), under 4.00; with MCF-7 (setting [6]), 6.72; in the assay on MCF-7 (setting [7]), 6.68.

As for `CC(=O)OC[C@H]1OC[C@@H](n2ccc(N)nc2=O)O1` [Compound 27], the pIC50 was 7.64 in the assay with SF-268 (read-out: IC50 SF-268 (72 h), 72 h exposure); 8.28 in the assay with H-460 (read-out: IC50 H-460 (72 h), 72 h exposure); 8.14 in the assay with MCF-7 (read-out: IC50 MCF-7 (72 h), 72 h exposure).

As to `CCCCNC(=O)OC[C@H]1OC[C@@H](n2ccc(N)nc2=O)O1` [Compound 48, BUTYL-CARBAMIC ACID 4- (4-AMINO-2-OXO-2H- PYRIMIDIN-1-YL)- [1,3]DIOXOLAN-2- YLMETHYL ESTER], the results for the pIC50 with H-460 (setting [8]), in the assay with H-460 (setting [9]) and with CEM/dCK- [1] (setting [5]) were 6.47, 6.23 and under 4.00, respectively.

Turning to `CC(C)(C(=O)Nc1ccn([C@@H]2CO[C@H](CO)O2)c(=O)n1)c1ccccc1[N+](=O)[O-]` [Compound 60, (2S,4S)--2- HYDROXYMETHYL-4-N-[2″- (2″′-NITROPHENYL)-2″- METHYLPROPIONYL]- CYTOSINE-1′-YL-1,3- DIOXOLANE], the pIC50 with H-460 (setting [8]) is 5.70; in the assay with H-460 (setting [9]), 5.51; in the assay on CCRF-CEM (setting [3]), 6.54; with CCRF-CEM (setting [4]), 6.51; with CEM/dCK- [1] (setting [5]), 5.54; with CEM/dCK- [1] (setting [10]), 5.74. Also, the pIC50 in the assay on MCF-7 (setting [6]) is 6.07; in the assay on MCF-7 (setting [7]), 6.02.

In the case of `CCCCCCOC(=O)Nc1ccn([C@@H]2CO[C@H](CO)O2)c(=O)n1` [Compound 61, [1-(2-HYDROXYMETHYL- [1,3]DIOXOLAN-4-YL)-2- OXO-1,2-DIHYDRO- PYRIMIDIN-4-YL]- CARBAMIC ACID HEXYL ESTER], the pIC50 with CEM/dCK- [1] (setting [5]) is under 4.00.

For `CC(C)(C)OC(=O)N(CCCCCC(=O)OC[C@H]1OC[C@@H](n2ccc(N)nc2=O)O1)Cc1ccccc1` [Compound 66, 6-(Benzyl-tert-butoxycarbonyl-amino)-hexanoic acid 4-(4-amino-2-oxo-2H-pyrimidin-1-yl)-[1,3]dioxolan-2-ylmethyl ester], the pIC50 with MCF-7 (setting [6]) was over 10.00; with MCF-7 (setting [7]) it was 10.13.

Take `CCCCC(C)(C)C(=O)OC[C@H]1OC[C@@H](n2ccc(/N=C\N(C)C)nc2=O)O1` [Compound 72, (2S,4S)-2-(2″- DIMETHYLHEXANOICOXYMETH YL)-4-(4′-N,N- DIMETHYLAMINOMETHYLENE- CYTOSIN-1′-YL)-1,3- DIOXOLANE]: the pIC50 was 6.89 in the assay on SF-268 (setting [11]); 7.12 in the assay with SF-268 (read-out: IC50 SF-268 24 h, 24 h drug exposure, wash, another 48 hr); 7.74 with H-460 (setting [8]); 7.57 in the assay on H-460 (setting [9]); 4.64 in the assay on CEM/dCK- [1] (setting [5]); 7.82 in the assay with MCF-7 (setting [6]). In the assay on MCF-7 (setting [7]), the pIC50 was 7.77.

Consider `Cc1cccc(C)c1C(=O)OC[C@H]1OC[C@@H](n2ccc(/N=C\N(C)C)nc2=O)O1` [Compound 87, (2S,4S)-2-(2″,6″- DIMETHYLBENZOYLOXYMETHY L)-4-(4′-N,N- DIMETHYLAMINOMETHLYENE- CYTOSIN-1′-YL)-1,3- DIOXOLANE], for which the pIC50 in the assay with CEM/dCK- [1] (setting [5]) was under 4.00.

Consider `CCNc1ccn([C@@H]2CO[C@H](COCC)O2)c(=O)n1` [Compound 93, 1-(2′(S)-ETHOXYMETHYL- [1,3]DIOXOLAN-4′(S)- YL)-4-ETHYLAMINO-1H- PYRIMIDIN-2-ONE], for which the pIC50 with SF-268 (setting [11]) and with CEM/dCK- [1] (setting [5]) was under 4.00 throughout.

Regarding `CC(C)[C@@H]1CC[C@@H](C)C[C@H]1OC(=O)Nc1ccn([C@@H]2CO[C@H](CO)O2)c(=O)n1` [Compound 94, [1-(2-Hydroxymethyl-[1,3]dioxolan-4-yl)-2-oxo-1,2-dihydro-pyrimidin-4-yl]-carbamic acid 2-isopropyl-5-methyl-cyclohexyl ester], the pIC50 in the assay on CEM/dCK- [1] (setting [5]) is 4.29; in the assay with CEM/dCK- [1] (setting [10]), 4.07; in the assay with MCF-7 (setting [6]), 4.62; with MCF-7 (setting [7]) it was 4.89.

Consider `CC(C)[C@@H]1CC[C@@H](C)C[C@H]1OC(=O)OC[C@H]1OC[C@@H](n2ccc(N)nc2=O)O1` [Compound 95, Carbonic acid 4-(4-amino-2-oxo-2#H!- pyrimidin-1-yl)-[1,3]dioxolan-2-ylmethyl ester 2-isopropyl-5-methyl-cyclohexyl ester], for which the pIC50 with H-460 (setting [8]) was over 10.00; in the assay on MCF-7 (setting [6]), 6.82; in the assay with MCF-7 (setting [7]) it was 7.00.

On to `CCCCOC(C)OC[C@H]1OC[C@@H](n2ccc(N)nc2=O)O1` (stereo partly drawn) [Compound 97, 4-AMINO-1-[2-(1-BUTOXY- ETHOXYMETHYL)- [1,3]DIOXOLAN-4-YL]-1H- PYRIMIDIN-2-ONE], for which the pIC50 was 4.66 in the assay with H-460 (setting [8]); 5.04 with CCRF-CEM (setting [3]); 5.23 with CCRF-CEM (setting [4]); under 4.00 in the assay on CEM/dCK- [1] (setting [5]); 5.30 with MCF-7 (setting [6]); 5.40 in the assay on MCF-7 (setting [7]).

Regarding `Nc1ccn([C@@H]2CO[C@H](COCc3ccccc3)O2)c(=O)n1` [Compound 98, (2S,4S) 4-AMINO-1-(2- BENZYLOXYMETHYL- [1,3]DIOXOLAN-4-YL)-1H- PYRIMIDIN-2-ONE], the pIC50 in the assay on CEM/dCK- [1] (setting [5]) was under 4.00; in the assay with MCF-7 (setting [6]), 6.89; with MCF-7 (setting [7]) it was 6.82 and 6.66.

On to `CC(C)c1cc(C(C)C)c(C(=O)OC[C@H]2OC[C@@H](n3ccc(N)nc3=O)O2)c(C(C)C)c1` [Compound 100, 2,4,6-Triisopropyl-benzoic acid 4-(4-amino-2-oxo-2H-pyrimidin-1-yl)-[1,3]dioxolan-2-ylmethyl ester], for which the pIC50 was 7.52 in the assay on H-460 (setting [8]) and 7.36 in the assay on H-460 (setting [9]).

On to `CC(C(=O)OC[C@H]1OC[C@@H](n2ccc(N)nc2=O)O1)c1ccccc1.Cl` (stereo partly drawn) [Compound 106], for which, in the assay on CEM/dCK- [1] (ratio of IC50 CEM/dCK- to CCRF-CEM, 24 h), the “Factor* (Resistance Factor = Ratio of dCK- on Wild-type CCRF-CEM)” value is reported as 4,600.

`CC(C)c1ccc(NC(=O)OC[C@H]2OC[C@@H](n3ccc(N)nc3=O)O2)cc1` [Compound 127, (4-ISOPROPYL-PHENYL)- CARBAMIC ACID 4-(4- AMINO-2-OXO-2H- PYRIMIDIN-1-YL)- [1,3]DIOXOLAN-2- YLMETHYL ESTER]: the pIC50 in the assay with CCRF-CEM (setting [3]) is 4.82; in the assay with CCRF-CEM (setting [4]), 4.66; in the assay with CEM/dCK- [1] (setting [5]) it was under 4.00; in the assay on MCF-7 (setting [6]) it was 4.80; in the assay on MCF-7 (setting [7]), 4.82.

With `CCCCCCN(CCCCCC)C(=O)OC[C@H]1OC[C@@H](n2ccc(N)nc2=O)O1` [Compound 135, DIHEXYLCARBAMIC ACID 4(S)-(4′-AMINO-2′-OXO- 2H-PYRIMIDIN-1′-YL)- [1,3]DIOXOLAN-2(S)- YLMETHYL ESTER], the pIC50 in the assay on SF-268 (setting [11]) is 6.60.

For the molecule `CC(CCCCN(Cc1ccccc1)C(=O)OC(C)(C)C)C(=O)OC[C@H]1OC[C@@H](n2ccc(/N=C/N(C)C)nc2=O)O1` (stereo partly drawn) [Compound 149, 6-(Benzyl-tert-butoxycarbonyl-amino)-methyl-hexanoic acid 4-[4-(dimethylamino-methyleneamino)-2-oxo-2H-pyrimidin-1-yl]-[1,3]dioxolan-2-ylmethyl ester], the pIC50 with CCRF-CEM (setting [3]) was over 10.00; with CCRF-CEM (setting [4]) it was 9.92; in the assay on CEM/dCK- [1] (setting [5]), 5.70; in the assay on CEM/dCK- [1] (setting [10]), under 5.74.

Take `CC(C)(C(=O)OC[C@H]1OC[C@@H](n2ccc(N)nc2=O)O1)c1ccccc1[N+](=O)[O-]` [Compound 155, (2S,4S)-2-[2″-(2″′- NITROPHENYL)-2″- METHYLPROPIONYLOXYMETHY L]-4-CYTOSIN-1′-YL-1,3- DIOXOLANE]: the pIC50 with CEM/dCK- [1] (setting [5]) is under 4.00.

With `CN(C)/C=N/c1ccn([C@@H]2CO[C@H](COC(=O)C(C)(C)CCC(=O)N(Cc3ccccc3)C(=O)OC(C)(C)C)O2)c(=O)n1` [Compound 166, 5-(Benzyl-tert-butoxycarbonyl-amino)-2,2-dimethyl-5-oxo-pentanoic acid 4-[4-(dimethylamino-methyleneamino)-2-oxo-2H-pyrimidin-1-yl]-[1,3]dioxolan-2-ylmethyl ester], in the assay with CEM/dCK- [2], the IC50 is 10 µM.

Turning to `CC(C)(C)C(=O)OC[C@H]1OC[C@@H](n2ccc(N)nc2=O)O1` [Compound 279, 2,2-DIMETHYL-PROPIONIC ACID 4-(4-AMINO-2-OXO- 2H-PYRIMIDIN-1-YL)- [1,3]DIOXOLAN-2-YL METHYL ESTER], the pIC50 in the assay with SF-268 (setting [11]) was 6.41; in the assay with SF-268 (Homo sapiens, SF-268, read-out: IC50 SF-268 (72 h), 72 h exposure), 7.36; in the assay with H-460 (setting [8]), 6.24; in the assay on H-460 (Homo sapiens, NCI-H460, read-out: IC50 H-460 (72 h), 72 h exposure), 7.14; with MCF-7 (setting [6]), 6.62; in the assay on MCF-7 (Homo sapiens, MCF7, read-out: IC50 MCF-7 (72 h), 72 h exposure) it was 7.68.
